Tested on: apomorphine-induced hypothermia, stereotypies and climbing
Assay: Low Dose Apomorphine Test in the mouse
Format: in vivo
Conditions: for STEREOTYPY (intensity score), 20 min after apomorphine, mean ± s.e.m. / STEREOTYPY (intensity score), 50 min after apomorphine, mean ± s.e.m.: 4 point scale (0-3); for CLIMBING (No. of mice), 20 minutes after apomorphine / CLIMBING (No. of mice), 50 minutes after apomorphine: 6 mice per group; for Rectal Temperature, 30 min after apomorphine, mean ± s.e.m. / Rectal Temperature, 60 min after apomorphine, mean ± s.e.m. / Rectal Temperature, before apomorphine, mean ± s.e.m. / effect on apomorphine-induced hypothermia: mouse; for Rectal Temperature, 30 min after apomorphine, mean change from control / Rectal Temperature, 60 min after apomorphine, mean change from control / STEREOTYPY (intensity score), 20 min after apomorphine, mean change from control / STEREOTYPY (intensity score), 50 min after apomorphine, mean change from control: vs vehicle
Description: Racemic tofisopam, (R)-tofisopam and (S)-tofisopam were investigated in the Low Dose Apomorphine Test in the mouse to evaluate their pro- or anti-dopaminergic activity following intraperitoneal (i.p.) administration of apomorphine. Apomorphine, at a low dose, induces hypothermia, stereotypies and climbing. All three of these symptoms are potentiated by dopaminergic agonists and antagonized by dopamine antagonists, such as classical neuroleptics. The Low Dose Apomorphine Test, thus serves to detect pro- or antidopaminergic activity. The test was performed according to the protocols described by Chermat and Poncelet. See, Chermat R., Poncelet M., “Antagonisme des redressements, des stéréotypies et de l'hypotheimie induits par 1 ou 16 mg.kg-1 d'apomorphine,” J. Pharmacol., 14, 93-97, 1983.
Male mice of Rj: NMRI strain, 23-26 g body weight range were supplied by Elevage Janvier, 53940 Le Genest-Saint-Isle, France. The animals were delivered to the laboratory at least 3 days before the experiment and, upon arrival, were housed 10 per cage in macrolon cages (25×19×13 cm) containing wood shavings (Litalabo-SPPS, 95100 Argenteuil, France) with free access to food (UAR 113-UAR, 91360 Epinay-sur-Orge, France) and tap water (i.e. non-fasted) until tested. The animal house was maintained under artificial lighting (12 hours) between 7.00 and 19.00 in a controlled ambient temperature of 21±1° C., and relative humidity maintained at 40-70%.
The different treatments were equally distributed between the animals. During the experiment, each animal within a cage received the same treatment. Animals within a cage were individually marked on the tail with an indelible pen.
The experiment was conducted blind with treatment vials labeled A, B, C etc., according to a standardized coding procedure. The evaluation of the different treatments was balanced over time by testing successive series of individual animals from each treatment group in a fixed rotation (A, B, C, etc.). Animals were sacrificed at the end of the experiment by exposure to CO2.
Three compounds, racemic tofisopam, (R)-tofisopam and (S)-tofisopam were tested in the Low Dose Apomorphine Test. Each of these three compounds was dosed as a dispersion in 0.2% hydroxypropylmethylcellulose (HPMC) (Sigma), in sterile physiological saline (Laboratoire Aguettant).
Two reference standards were also dosed. Bromocriptine, methanesulfonate (Sigma), a known dopamine agonist, and haloperidol (Sigma), a known dopamine antagonist, were dispersed in 0.2% HPMC in sterile physiological saline.
Apomorphine hydrochloride, the dopamine mimetic employed in the assay, was dissolved in water for injectable preparation (Laboratoire Aguettant). Dosing: All of the dosed substances were administered in a volume of 10 ml/kg. The doses are expressed in mg/kg of supplied substance.
6 mice were studied per group. The test was performed blind.
Racemic tofisopam, (R)-tofisopam and (S)-tofisopam were administered at doses of 16, 32 and 64 mg/kg, administered intraperitonealy (i.p.), 30 minutes prior to administration of apomorphine.
The rectal temperature of the mice was measured prior to apomorphine dosing using a rectal probe (Physitemp Instruments Digital Laboratory Thermometer Model BAT-12). The mice were then placed in individual Plexiglas cages (10×6×4 cm) attached with the opening against a vertical wire grid.
The mice were then injected subcutaneously (s.c.) with apomorphine (1 mg/kg). Rectal temperature was measured 30 and 60 minutes after the injection of apomorphine.
The intensity of stereotypies (sniffing, licking, gnawing), were scored at 20 minutes and 50 minutes after injection of apomorphine on a 4 point scale (0-3). The presence (1) or absence (0) of climbing against the wire grid wall, were also assessed 20 and 50 minutes after injection of apomorphine.
The reference standards bromocriptine (16 mg/kg) and haloperidol (0.5 mg/kg), were administered under the same experimental conditions.

[1] = 16 mg/kg i.p. 30 min before apomorphine 1 mg/kg s.c.
[2] = 0.5 mg/kg, before apomorphine 1 mg/kg s.c.

In the case of Bromocriptine, methanesulfonate, the “effect on apomorphine-induced stereotypies or climbing” value (16 mg/kg) is reported as “did not significantly affect”, the “STEREOTYPY (intensity score), 20 min after apomorphine, mean ± s.e.m.” value [1] is reported as 2.7 ± 0.2 and the “STEREOTYPY (intensity score), 50 min after apomorphine, mean ± s.e.m.” value [1] is reported as 1.0 ± 0.4. For the same compound, the “CLIMBING (No. of mice), 20 minutes after apomorphine” value [1] was 6 No. of mice, the “CLIMBING (No. of mice), 50 minutes after apomorphine” value [1] was 2 No. of mice and the “Rectal Temperature, 30 min after apomorphine, mean ± s.e.m.” value [1] was 34.4 ± 0.4 °C. The “Rectal Temperature, 60 min after apomorphine, mean ± s.e.m.” value [1] was 35.0 ± 0.5 °C, the “Rectal Temperature, 30 min after apomorphine, mean change from control” value [1] was −0.7 °C and the “Rectal Temperature, 60 min after apomorphine, mean change from control” value [1] was −1.7 °C. For the same compound, the “STEREOTYPY (intensity score), 20 min after apomorphine, mean change from control” value [1] was “+0.5”, the “STEREOTYPY (intensity score), 50 min after apomorphine, mean change from control” value [1] was 0.0 and the “Rectal Temperature, before apomorphine, mean ± s.e.m.” value (16 mg/kg i.p., 30 min after test substance) was 37.2 ± 0.2 °C. For the same compound, the “effect on apomorphine-induced hypothermia” value (16 mg/kg) was “significantly potentiated”.
`O=C(CCCN1CCC(O)(c2ccc(Cl)cc2)CC1)c1ccc(F)cc1` [Haloperidol, haloperidol] was tested, and the “effect on apomorphine-induced stereotypies and climbing as well as hypothermia” value (0.5 mg/kg) was “significantly antagonized”, the “STEREOTYPY (intensity score), 20 min after apomorphine, mean ± s.e.m.” value [2] was 0.0 ± 0.0 and the “STEREOTYPY (intensity score), 50 min after apomorphine, mean ± s.e.m.” value [2] was 0.0 ± 0.0. The “CLIMBING (No. of mice), 20 minutes after apomorphine” value [2] was 0+ No. of mice, the “CLIMBING (No. of mice), 50 minutes after apomorphine” value [2] was 1 No. of mice and the “Rectal Temperature, 30 min after apomorphine, mean ± s.e.m.” value [2] was 37.0 ± 0.1 °C. The “Rectal Temperature, 60 min after apomorphine, mean ± s.e.m.” value [2] was 37.7 ± 0.1 °C, the “Rectal Temperature, 30 min after apomorphine, mean change from control” value [2] was “+1.9 °C” and the “Rectal Temperature, 60 min after apomorphine, mean change from control” value [2] was “+1.0 °C”. For the same compound, the “STEREOTYPY (intensity score), 20 min after apomorphine, mean change from control” value [2] was −2.2, the “STEREOTYPY (intensity score), 50 min after apomorphine, mean change from control” value [2] was −1.0 and the “Rectal Temperature, before apomorphine, mean ± s.e.m.” value (0.5 mg/kg) was 37.3 ± 0.1 °C. For the same compound, the “effect on apomorphine-induced hypothermia” value (0.5 mg/kg) was “significantly antagonized”.
